# Experimental data as given in US20050239656A1, “Pyridine compounds or salts thereof and herbicides containing the same” (priority 2002, published 2005).
# Legend:
# barnyardgrass [1] = experiment: Test Example 2: soil surface treatment, upland pot test; format: in vivo, Echinochloa crus-galli L.; settings: active ingredient 500 g/ha, observed 20th to 28th day
# From the text: (§1) Upland field soil was put into a 1/170,000 ha pot, and seed of various plants (barnyardgrass, crabgrass, green foxtail, redroot pigweed, prickly sida, velvetleaf, rice, wheat, corn, soybean) were sown. On the 1st day after the sowing, a wettable powder or emulsifiable concentrate having the compound of the present invention formulated in accordance with a usual formulation method, was weighed so that the active ingredient would be a predetermined amount, and diluted with water in an amount of 1,500 L/ha. The herbicide thus adjusted was applied by a small size sprayer for soil surface treatment. On the 20th to 28th days after the application of the herbicide, the growth of the respective plants was visually observed, and the herbicidal effects were evaluated by the growth controlling degrees (%) ranging from 0 (equivalent to the non-treated plot) to 100 (complete kill), whereby the results shown in Table 4, were obtained.
# crabgrass = experiment: as above; format: in vivo, Digitaria sanguinalis L.; settings: active ingredient 500 g/ha, observed 20th to 28th day
# From the text: as §1
# green foxtail = experiment: as above; format: in vivo, Setaria viridis L.; settings: active ingredient 500 g/ha, observed 20th to 28th day
# From the text: as §1
# redroot pigweed = experiment: as above; format: in vivo, Amaranthus retroflexus L.; settings: active ingredient 500 g/ha, observed 20th to 28th day
# From the text: as §1
# prickly sida = experiment: as above; format: in vivo, Sida spinosa L.; settings: active ingredient 500 g/ha, observed 20th to 28th day
# From the text: as §1
# velvetleaf = experiment: as above; format: in vivo, Abutilon theophrasti MEDIC.; settings: active ingredient 500 g/ha, observed 20th to 28th day
# From the text: as §1
# rice = experiment: as above; format: in vivo, Oryza sativa L.; settings: active ingredient 500 g/ha, observed 20th to 28th day
# From the text: as §1
# corn = experiment: as above; format: in vivo, Zea mays L.; settings: active ingredient 500 g/ha, observed 20th to 28th day
# From the text: as §1
# soybean = experiment: as above; format: in vivo, Glycine max Merr.; settings: active ingredient 500 g/ha, observed 20th to 28th day
# From the text: as §1
# barnyardgrass [2] = experiment: Test Example 3: paddy pot test, application under submerged conditions; format: in vivo, Echinochloa crus-galli L.; settings: submerged application at 0.5 leaf stage, visually observed 14 days after application, 0 = non-treated, 100 = complete kill
# Outline: (§2)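 Visual rating of growth control (0% equals untreated, 100% complete kill) made 14 days after treatment. Compound, formulated as wettable powder or emulsifiable concentrate and diluted in water, was pipetted under submerged conditions at predetermined active-ingredient doses once weeds reached 0.5-leaf (barnyardgrass, bulrush) or primary-leaf (wapato, from tubers) stage. Pots of greenhouse paddy soil held 3–4 cm flooding.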
# japanese bulrush = experiment: as above; format: in vivo, Scirpus juncoides; settings: submerged application at 0.5 leaf stage, visually observed 14 days after application, 0 = non-treated, 100 = complete kill
# Outline: as §2
# japanese ribbon wapato = experiment: as above; format: in vivo, Sagittaria pygniaea; settings: submerged application at primary leaf stage, visually observed 14 days after application, 0 = non-treated, 100 = complete kill
# Outline: as §2
# rice (var. Nihonbare) = experiment: Test Example 3: paddy pot test, transplanted rice; format: in vivo, Oryza sativa L.; settings: applied 4th day after transplantation, visually observed 21st day after application, 0 = non-treated, 100 = complete kill
# Outline: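 Visual crop-injury rating (0 = as untreated, 100 = complete kill, %) taken 21 days post-application. Treatment: formulated compound, water-diluted, pipetted into 3–4 cm flood water at a preset active-ingredient dose, 4 days after transplanting 2-leaf Nihonbare rice 3 cm deep in puddled paddy soil.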
Compound,Growth controlling degree (%) Barnyardgrass (barnyardgrass [1]),Growth controlling degree (%) Crabgrass (crabgrass),Growth controlling degree (%) Green foxtail (green foxtail),Growth controlling degree (%) Redroot pigweed (redroot pigweed),Growth controlling degree (%) Prickly sida (prickly sida),Growth controlling degree (%) Velvetleaf (velvetleaf),Growth controlling degree (%) Rice (rice),Growth controlling degree (%) Corn (corn),Growth controlling degree (%) Soyabean (soybean),Growth controlling degree (%) Barnyardgrass (barnyardgrass [2]; active ingredient 250 g/ha),Growth controlling degree (%) Japanese bulrush (japanese bulrush; active ingredient 250 g/ha),Growth controlling degree (%) Japanese ribbon wapato (japanese ribbon wapato; active ingredient 250 g/ha),Growth controlling degree (%) Rice (rice (var. Nihonbare); active ingredient 250 g/ha),Growth controlling degree (%) Barnyardgrass (barnyardgrass [2]; active ingredient 125 g/ha),Growth controlling degree (%) Japanese bulrush (japanese bulrush; active ingredient 125 g/ha),Growth controlling degree (%) Japanese ribbon wapato (japanese ribbon wapato; active ingredient 125 g/ha),Growth controlling degree (%) Rice (rice (var. Nihonbare); active ingredient 125 g/ha)
Cc1ccc(CC(=O)N(C)C(c2cnccc2C(F)(F)F)C(C)C)cc1 (centres unmarked) [I-94],100%,100%,100%,98%,100%,80%,10%,10%,0%,100%,98%,90%,0%,,,,
CCN(C(=O)Cc1ccc(F)cc1)C(c1cnccc1C(F)(F)F)C(C)C (centres unmarked) [Compound I-99],100%,98%,100%,40%,95%,40%,20%,40%,30%,100%,98%,90%,0%,,,,
Cc1ccc(CC(=O)N(C)C(c2cnccc2C(F)(F)F)C(C)C)c(F)c1 (racemic) [I-109],0%,98%,70%,70%,0%,0%,20%,10%,0%,,,,,95%,90%,60%,0%
Cc1ccc(OCC(=O)N(C)C(c2cnccc2C(F)(F)F)C(C)C)cc1 (centres unmarked) [Compound I-239],60%,95%,90%,70%,80%,30%,0%,10%,10%,98%,98%,70%,0%,,,,
CC(C)C(c1cnccc1C(F)(F)F)N(C)C(=O)Cc1cc(C(F)(F)F)ccc1F (centres unmarked) [Compound I-96],60%,85%,100%,80%,70%,50%,10%,20%,20%,100%,100%,0%,30%,,,,
